Legend:
Type in all cases: cell-based
A-431 skin cancer cells = assay: Cancer cell survival (CellTiter-Glo), A-431; settings: Homo sapiens, A-431 cells, 72 h
Summary of the method: (§1)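 Luminescent ATP read-out (CellTiter-Glo) after 72 h compound exposure at 37 C/5% CO2. Survival % is calculated against untreated cells minus medium background, and IC50 is taken from nine concentrations run in triplicate. Plating density was 4×10^3 cells/well with overnight attachment beforehand.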

MCF7 breast cancer cells = assay: Cancer cell survival (CellTiter-Glo), MCF7; settings: Homo sapiens, 72 h
Summary of the method: as §1

[1] = system: Daudi lymphoma cancer cells; assay: Cancer cell survival (CellTiter-Glo), Daudi; settings: Homo sapiens, 72 h
Summary of the method: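 Daudi cells (4×10^3/well) were exposed for 72 h at 37 °C to nine concentrations of compound, added as 10× solutions spanning 1 μM–10 mM (fatty acids) or 100 nM–1 mM (others). CellTiter-Glo luminescence gave % survival versus untreated, medium-blank corrected; IC50 derived.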

[2] = system: HCT 116 colorectal cancer cells; assay: Cancer cell survival (CellTiter-Glo), HCT 116; settings: Homo sapiens, HCT 116 cells, 72 h
Summary of the method: as §1

T24 bladder cancer cells = assay: Cancer cell survival (CellTiter-Glo), T24; settings: Homo sapiens
Summary of the method: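 Viability by CellTiter-Glo after 72 h compound treatment of T24 bladder cancer cells (4×10^3/well, plated the night before), nine concentration levels in triplicate. Percent survival normalised to untreated cells minus medium background, from which IC50 was determined.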

[3] = system: PC-3 prostate cancer cells; assay: Cancer cell survival (CellTiter-Glo), PC-3; settings: Homo sapiens, PC-3 cells, 72 h
Summary of the method: as §1

AGS stomach cancer cells = assay: Cancer cell survival (CellTiter-Glo), AGS
Summary of the method: as §1

A549 lung cancer cells = assay: Cancer cell survival (CellTiter-Glo), A549; settings: Homo sapiens, 72 h
Summary of the method: as §1

[4] = 101 nM, read-out: Cell survival at given concentration
[5] = 318 nM, read-out: Cell survival at given concentration
[6] = 1 μM, read-out: Cell survival at given concentration
[7] = 3 μM, read-out: Cell survival at given concentration
[8] = 10 μM, read-out: Cell survival at given concentration
[9] = 32 μM, read-out: Cell survival at given concentration
[10] = 100 μM, read-out: Cell survival at given concentration
[11] = 316 μM, read-out: Cell survival at given concentration
[12] = 1000 μM, read-out: Cell survival at given concentration

Q: What does the source list for `O=c1cc(-c2ccc(O)c(O)c2)oc2cc(O)cc(O)c12` [luteolin]?
A: viability at 0.101 µM (A-431 skin cancer cells; [4]): 101%; viability at 0.318 µM (A-431 skin cancer cells; [5]): 99%; viability at 1 µM (A-431 skin cancer cells; [6]): 102%; viability at 3 µM (A-431 skin cancer cells; [7]): 101%; viability at 10 µM (A-431 skin cancer cells; [8]): 99%; viability at 32 µM (A-431 skin cancer cells; [9]): 61%; viability at 100 µM (A-431 skin cancer cells; [10]): 39%; viability at 316 µM (A-431 skin cancer cells; [11]): 20%; viability at 1000 µM (A-431 skin cancer cells; [12]): 4%; IC50 (A-431 skin cancer cells; Table 9.1): 71.8 µM; viability at 0.101 µM (MCF7 breast cancer cells; [4]): 96%; viability at 0.318 µM (MCF7 breast cancer cells; [5]): 99%; viability at 1 µM (MCF7 breast cancer cells; [6]): 103%; viability at 3 µM (MCF7 breast cancer cells; [7]): 104%; viability at 10 µM (MCF7 breast cancer cells; [8]): 108%; viability at 32 µM (MCF7 breast cancer cells; [9]): 60%; viability at 100 µM (MCF7 breast cancer cells; [10]): 31%; viability at 316 µM (MCF7 breast cancer cells; [11]): 26%; viability at 1000 µM (MCF7 breast cancer cells; [12]): 24%; IC50 (MCF7 breast cancer cells; Table 5.1): 36 µM; viability at 0.101 µM [1, 4]: 100%; viability at 0.318 µM [1, 5]: 102%; viability at 1 µM [1, 6]: 103%; viability at 3 µM [1, 7]: 106%; viability at 10 µM [1, 8]: 85%; viability at 32 µM [1, 9]: 33%; viability at 100 µM [1, 10]: 10%; viability at 316 µM [1, 11]: 6%; viability at 1000 µM [1, 12]: 16%; IC50 ([1]; Table 4.1): 21.6 µM; viability at 0.101 µM [2, 4]: 100%; viability at 0.318 µM [2, 5]: 98%; viability at 1 µM [2, 6]: 101%; viability at 3 µM [2, 7]: 97%; viability at 10 µM [2, 8]: 93%; viability at 32 µM [2, 9]: 29%; viability at 100 µM [2, 10]: 2%; viability at 316 µM [2, 11]: 6%; viability at 1000 µM [2, 12]: 1%; IC50 ([2]; Table 6.1): 23.8 µM; viability at 0.101 µM (T24 bladder cancer cells; T-24, 101 nM, 72 h, read-out: Cell survival at given concentration): 99%; viability at 0.318 µM (T24 bladder cancer cells; T-24, 318 nM, 72 h, read-out: Cell survival at given concentration): 102%; viability at 1 µM (T24 bladder cancer cells; T-24, 1 μM, 72 h, read-out: Cell survival at given concentration): 103%; viability at 3 µM (T24 bladder cancer cells; T-24, 3 μM, 72 h, read-out: Cell survival at given concentration): 94%; viability at 10 µM (T24 bladder cancer cells; T-24, 10 μM, 72 h, read-out: Cell survival at given concentration): 85%; viability at 32 µM (T24 bladder cancer cells; T-24, 32 μM, 72 h, read-out: Cell survival at given concentration): 35%; viability at 100 µM (T24 bladder cancer cells; T-24, 100 μM, 72 h, read-out: Cell survival at given concentration): 9%; viability at 316 µM (T24 bladder cancer cells; T-24, 316 μM, 72 h, read-out: Cell survival at given concentration): 8%; viability at 1000 µM (T24 bladder cancer cells; T-24, 1000 μM, 72 h, read-out: Cell survival at given concentration): 6%; IC50 (T24 bladder cancer cells; T-24, 72 h, Table 3.1, read-out: 1050): 22.8 µM; viability at 0.101 µM [3, 4]: 100%; viability at 0.318 µM [3, 5]: 99%; viability at 1 µM [3, 6]: 100%; viability at 3 µM [3, 7]: 102%; viability at 10 µM [3, 8]: 96%; viability at 32 µM [3, 9]: 74%; viability at 100 µM [3, 10]: 52%; viability at 316 µM [3, 11]: 23%; viability at 1000 µM [3, 12]: 23%; IC50 ([3]; Table 8.1): 93.5 µM; viability at 0.101 µM (AGS stomach cancer cells; 72 h, 101 nM, read-out: Cell survival at given concentration): 99%; viability at 0.318 µM (AGS stomach cancer cells; 72 h, 318 nM, read-out: Cell survival at given concentration): 100%; viability at 1 µM (AGS stomach cancer cells; 72 h, 1 μM, Table 10.1, read-out: Cell survival at given concentration): 103%; viability at 3 µM (AGS stomach cancer cells; 72 h, 3 μM, Table 10.1, read-out: Cell survival at given concentration): 106%; viability at 10 µM (AGS stomach cancer cells; 72 h, 10 μM, Table 10.1, read-out: Cell survival at given concentration): 106%; viability at 32 µM (AGS stomach cancer cells; 72 h, 32 μM, Table 10.1, read-out: Cell survival at given concentration): 77%; viability at 100 µM (AGS stomach cancer cells; 72 h, 100 μM, Table 10.1, read-out: Cell survival at given concentration): 29%; viability at 316 µM (AGS stomach cancer cells; 72 h, 316 μM, read-out: Cell survival at given concentration): 8%; viability at 1000 µM (AGS stomach cancer cells; 72 h, 1000 μM, read-out: Cell survival at given concentration): 3%; IC50 (AGS stomach cancer cells; Table 10.1): 68.2 µM; viability at 0.101 µM (A549 lung cancer cells; [4]): 96%; viability at 0.318 µM (A549 lung cancer cells; [5]): 98%; viability at 1 µM (A549 lung cancer cells; [6]): 100%; viability at 3 µM (A549 lung cancer cells; [7]): 100%; viability at 10 µM (A549 lung cancer cells; [8]): 101%; viability at 32 µM (A549 lung cancer cells; [9]): 84%; viability at 100 µM (A549 lung cancer cells; [10]): 37%; viability at 316 µM (A549 lung cancer cells; [11]): 13%; viability at 1000 µM (A549 lung cancer cells; [12]): 10%; IC50 (A549 lung cancer cells; Table 7.1): 74.2 µM

— patent US20210085640A1, “ACYLATED CATECHIN POLYPHENOLS AND METHODS OF THEIR USE FOR THE TREATMENT OF CANCER” (Flagship Pioneering Innovations V, Inc., priority 2018, published 2021)
